Reference: BigSolDB 2.1

CN1C(C(=O)Nc2ccccn2)=C(O)c2sccc2S1(=O)=O
Conditions | solubility (mole fraction)
in PEG-400, 298.15 K | 0.0098
in PEG-400, 303.15 K | 0.0134
in PEG-400, 308.15 K | 0.0178
in PEG-400, 313.15 K | 0.0228
in PEG-400, 323.15 K | 0.035

in water
Conditions | solubility (mole fraction)
298.15 K | 4.13e-06
303.15 K | 5.1e-06
308.15 K | 6.62e-06
313.15 K | 8.49e-06
323.15 K | 1.4e-05
